Holding throughout (type): binding
In experiment [1] the target is T1, OiMacroD (Oceanobacillus iheyensis, UniProt Q8EP31).
T1 construct: gene OB2288
Put plainly: thermal shift, SYPRO Orange. The settings on record: 50 mM sodium phosphate pH 7.0, 1 mM ligand; without ligand Tm = 41.7 ± 0.2 °C.

Experiment [2] concerns the target T1, OiMacroD. The experiment is described as follows: thermal shift, SYPRO Orange. The note with it: 50 mM sodium phosphate pH 7.0, 1 mM ligand; without ligand Tm = 41.7 ± 0.2 °C. The source holds these as a separate data set.
The target in experiment [3] is T1, OiMacroD. The experiment is described as follows: X-ray crystal structure, […] Å. The note with it: crystal soaked with 20 mM ADPr; active site.
In experiment [4] the target is T2, OiMacroD (Oceanobacillus iheyensis, UniProt Q8EP31, G37V).
T2 construct: gene OB2288
T2 sequence (Q8EP31 entry or part of it G37V): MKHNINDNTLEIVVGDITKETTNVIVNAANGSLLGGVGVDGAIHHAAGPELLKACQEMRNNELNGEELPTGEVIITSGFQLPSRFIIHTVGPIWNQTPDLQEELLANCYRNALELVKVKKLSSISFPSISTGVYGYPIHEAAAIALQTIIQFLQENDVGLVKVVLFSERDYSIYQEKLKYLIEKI
The experiment is described as follows: X-ray crystal structure, […] Å. The note with it: crystal soaked with 20 mM ADPr; active site.

The target in experiment [5] is T1, OiMacroD. The experiment is described as follows: thermal shift, SYPRO Orange. The note with it: 50 mM sodium phosphate pH 7.0, 1 mM ligand; without ligand Tm = 41.7 ± 0.2 °C. This is another data set of the same source.
For experiment [6], the target named is T1, OiMacroD. Put plainly: X-ray crystal structure, […] Å. The note with it: crystal soaked with 20 mM ADP; active site, two alternative conformations.

Structures are written as SMILES.

T1 sequence (Q8EP31 entry or part of it): as the sequence (Q8EP31 entry or part of it G37V) above, with V37G counted along it

Consider `Nc1ncnc2c1ncn2[C@@H]1O[C@H](COP(=O)(O)O)[C@@H](O)[C@H]1O` [AMP], for which the “Tm with 1 mM AMP” value at OiMacroD [1] is 43.3 ± 0.1 °C.

Consider `Nc1ncnc2c1ncn2[C@@H]1O[C@H](COP(=O)(O)OP(=O)(O)OC[C@H]2OC(O)[C@H](O)[C@@H]2O)[C@@H](O)[C@H]1O` (stereo partly drawn) [ADP-ribose], for which the “Tm with 1 mM ADPr” value at OiMacroD [2] turned out to be 47.8 ± 0.1 °C. For the same molecule, the “X-ray crystal structure, 1.77 Å” value on OiMacroD [3] is on record as “OiMacroD-ADPr (5L9K)”. Also, the “X-ray crystal structure, 1.35 Å” value at OiMacroD [4] is “OiMacroD G37V (ADPr) (5LAU)”.

Regarding `Nc1ncnc2c1ncn2[C@@H]1O[C@H](COP(=O)(O)OP(=O)(O)O)[C@@H](O)[C@H]1O` [ADP], the “Tm with 1 mM ADP” value on OiMacroD [5] amounted to 44.0 ± 0.2 °C. The “X-ray crystal structure, 1.75 Å” value on OiMacroD [6] is listed as “OiMacroD-ADP (5L9Q)”.

Values taken from publication PMC5413906, “Structural and functional analysis of Oceanobacillus iheyensis macrodomain reveals a network of waters involved in substrate binding and catalysis” (Open Biology, 2017).
